Test results reported in ChEMBL document CHEMBL6083239, “Synthesis, optimization and antitumor activity evaluation of sulfonyl benzoyl hydrazide derivatives as novel human LSD1 inhibitors” (Bioorg Med Chem Lett, 2024).
≈ marks a conversion by molar mass, not a printed value.

Experiments:
A549 = test: cells; settings: Homo sapiens
Description: Antiproliferative activity against human A549 cells by MTT assay

[1] = Solubility of compound; format: physicochemical
A2780 = test: Antiproliferative activity against human A2780 cells by MTT assay
MCF7 = test: cells; settings: Homo sapiens
Description: Antiproliferative activity against human MCF7 cells by MTT assay

DU-145 = test: Antiproliferative activity against human DU-145 cells by MTT assay
MDA-MB-231 = test: cells; settings: Homo sapiens
Description: Antiproliferative activity against human MDA-MB-231 cells by MTT assay

HCT-116 [2] = test: Antiproliferative activity against human HCT-116 cells by MTT assay
HCT-116 [3] = test: Induction of apoptosis in human HCT-116 cells assessed as late apoptotic cells at 0.25 uM by Annexin V-FITC/PI staining based assay (reference value: 0.37%); format: functional
[4] = Toxicity in nude mouse xenografted with human HCT-116 cells assessed as change in body weight at 60 mg/kg, ip; format: organism-based; settings: in vivo
HCT-116 [5] = test: Induction of apoptosis in human HCT-116 cells assessed as necrotic cells at 0.5 uM by Annexin V-FITC/PI staining based assay (reference value: 1.05%); format: functional
HCT-116 [6] = test: Induction of apoptosis in human HCT-116 cells assessed as early apoptotic cells at 0.125 uM by Annexin V-FITC/PI staining based assay (reference value: 1.82%); format: functional
HCT-116 [7] = test: Induction of apoptosis in human HCT-116 cells assessed as viable cells at 0.5 uM by Annexin V-FITC/PI staining based assay (reference value: 96.76%); format: functional; settings: read-out: Activity
HCT-116 [8] = test: Induction of apoptosis in human HCT-116 cells assessed as late apoptotic cells at 0.5 uM by Annexin V-FITC/PI staining based assay (reference value: 0.37%); format: functional
HCT-116 [9] = test: Induction of apoptosis in human HCT-116 cells assessed as late apoptotic cells at 0.125 uM by Annexin V-FITC/PI staining based assay (reference value: 0.37%); format: functional
HCT-116 [10] = test: Induction of apoptosis in human HCT-116 cells assessed as necrotic cells at 0.25 uM by Annexin V-FITC/PI staining based assay (reference value: 1.05%); format: functional
HCT-116 [11] = test: Induction of apoptosis in human HCT-116 cells assessed as viable cells at 0.125 uM by Annexin V-FITC/PI staining based assay (reference value: 96.76%); format: functional; settings: read-out: Activity
HCT-116 [12] = test: Upregulation of H3K4me2 expression in human HCT-116 cells at 0.125 to 0.5 uM; format: functional, cell-based; settings: dose 0.125-0.5 µM
HCT-116 [13] = test: Induction of apoptosis in human HCT-116 cells assessed as viable cells at 0.25 uM by Annexin V-FITC/PI staining based assay (reference value: 96.76%); format: functional; settings: read-out: Activity
HCT-116 [14] = test: Antitumor activity against human HCT-116 cells xenografted in nude mouse assessed as tumor growth inhibition at 60 mg/kg, ip measured every 3 days; format: functional; set-up: scale not given: the % may be the effect or the level left
HCT-116 [15] = test: Induction of apoptosis in human HCT-116 cells assessed as necrotic cells at 0.125 uM by Annexin V-FITC/PI staining based assay (reference value: 1.05%); format: functional
HCT-116 [16] = test: Induction of cell cycle arrest in human HCT-116 cells assessed as increase in S-phase cells at 0.5 uM; format: functional
HCT-116 [17] = test: Upregulation of H3K4me1 expression in human HCT-116 cells at 0.125 to 0.5 uM; format: functional, cell-based; settings: dose 0.125-0.5 µM
HCT-116 [18] = test: Induction of apoptosis in human HCT-116 cells assessed as early apoptotic cells at 0.25 uM by Annexin V-FITC/PI staining based assay (reference value: 1.82%); format: functional
HCT-116 [19] = test: Induction of cell cycle arrest in human HCT-116 cells assessed as increase in S-phase cells; format: functional, cell-based
HCT-116 [20] = test: Induction of apoptosis in human HCT-116 cells assessed as early apoptotic cells at 0.5 uM by Annexin V-FITC/PI staining based assay (reference value: 1.82%); format: functional
HCT-116 [21] = test: Antiproliferative activity against human HCT-116 cells assessed as reduction in EdU positive cells at 0.25 uM; format: functional, cell-based
HCT-116 [22] = test: Induction of apoptosis in human HCT-116 cells assessed as early apoptotic cells at 1 uM by Annexin V-FITC/PI staining based assay (reference value: 1.82%); format: functional
HCT-116 [23] = test: Induction of apoptosis in human HCT-116 cells assessed as viable cells at 2 uM by Annexin V-FITC/PI staining based assay (reference value: 96.76%); format: functional; settings: read-out: Activity
HCT-116 [24] = test: Induction of apoptosis in human HCT-116 cells assessed as necrotic cells at 1 uM by Annexin V-FITC/PI staining based assay (reference value: 1.05%); format: functional
HCT-116 [25] = test: Induction of apoptosis in human HCT-116 cells assessed as late apoptotic cells at 1 uM by Annexin V-FITC/PI staining based assay (reference value: 0.37%); format: functional
HCT-116 [26] = test: Induction of apoptosis in human HCT-116 cells assessed as viable cells at 1 uM by Annexin V-FITC/PI staining based assay (reference value: 96.76%); format: functional; settings: read-out: Activity
HCT-116 [27] = test: Induction of apoptosis in human HCT-116 cells assessed as early apoptotic cells at 2 uM by Annexin V-FITC/PI staining based assay (reference value: 1.82%); format: functional
HCT-116 [28] = test: Induction of apoptosis in human HCT-116 cells assessed as necrotic cells at 2 uM by Annexin V-FITC/PI staining based assay (reference value: 1.05%); format: functional
HCT-116 [29] = test: Induction of apoptosis in human HCT-116 cells assessed as late apoptotic cells at 2 uM by Annexin V-FITC/PI staining based assay (reference value: 0.37%); format: functional

Structure (SMILES)	IC50 (A549) [nM]	solubility [1] [µg/mL]	IC50 (A2780) [nM]	IC50 (MCF7) [nM]	IC50 (DU-145) [nM]	IC50 (MDA-MB-231) [nM]	IC50 (HCT-116 [2]) [nM]	also measured
O=C(N/N=C1\CCc2c(Cl)ccc(O)c21)c1cccc(S(=O)(=O)N2CCOCC2)c1	1000	29 (≈ 64.5 µM)		500	2500	2800	500	
C/C(=N\NC(=O)c1cccc(S(=O)(=O)N2CCN(C)CC2)c1)c1cc(Cl)ccc1O [SECLIDEMSTAT]	2700	35.7 (≈ 79.2 µM)	2400	400	10500	1100	600	Activity (HCT-116 [22]): 4.56%; Activity (HCT-116 [5]): 2.48%; viability at 2 µM (HCT-116 [23]): 91.7%; viability at 0.5 µM (HCT-116 [7]): 92.1%; Activity (HCT-116 [8]): 2.16%; Activity (HCT-116 [24]): 1.32%; Activity (HCT-116 [25]): 0.64%; viability at 1 µM (HCT-116 [26]): 93.5%; Activity (HCT-116 [27]): 5.44%; Activity (HCT-116 [28]): 1.87%; Activity (HCT-116 [16]): 63%; Activity (HCT-116 [29]): 0.97%; Activity (HCT-116 [20]): 3.22%
O=C(N/N=C1\CCc2c(O)ccc(O)c21)c1cccc(S(=O)(=O)N2CCOCC2)c1	1400	46.9 (≈ 109 µM)	1600	600	7600	3200	900	

Now those with a lower IC50 (A549), led by results:

IC50 (A549) [nM]	solubility [1] [µg/mL]	IC50 (A2780) [nM]	IC50 (MCF7) [nM]	IC50 (DU-145) [nM]	IC50 (MDA-MB-231) [nM]	IC50 (HCT-116 [2]) [nM]	Structure (SMILES)	also measured
300	30.2 (≈ 68.1 µM)	700	300	11800	1000	700	CC1COCC(C)N1S(=O)(=O)c1cccc(C(=O)N/N=C2\CCc3cccc(O)c32)c1 (centres undefined)	
300	77.2 (≈ 168 µM)	900	100	2300	800	100	CC1COCC(C)N1S(=O)(=O)c1cccc(C(=O)N/N=C2\CCc3c(O)ccc(O)c32)c1 (centres undefined)	Activity (HCT-116 [3]): 1.71%; Activity [4]: Non-toxic; Activity (HCT-116 [5]): 2%; Activity (HCT-116 [6]): 10.47%; viability at 0.5 µM (HCT-116 [7]): 70.2%; Activity (HCT-116 [8]): 2.15%; Activity (HCT-116 [9]): 2.73%; Activity (HCT-116 [10]): 1.28%; viability at 0.125 µM (HCT-116 [11]): 86.1%; Activity (HCT-116 [12]): Active; Slight Increase Observed; viability at 0.25 µM (HCT-116 [13]): 79.7%; Activity (HCT-116 [14]): 75%; Activity (HCT-116 [15]): 0.69%; Activity (HCT-116 [16]): 71%; Activity (HCT-116 [17]): Active; Slight Increase Observed; Activity (HCT-116 [18]): 17.28%; Activity (HCT-116 [19]): Dose-dependent-effect; Activity (HCT-116 [20]): 25.6%; Activity (HCT-116 [21]): Active; At High Concentration Showed More Potent Activity Than Sp-2577
900	27.9 (≈ 67.2 µM)	900		1900	2900	400	O=C(N/N=C1\CCc2cccc(O)c21)c1cccc(S(=O)(=O)N2CCOCC2)c1	
500	23.9 (≈ 50 µM)	500	600	9200	900	500	CC1COCC(C)N1S(=O)(=O)c1cccc(C(=O)N/N=C2\CCc3c(Cl)ccc(O)c32)c1 (centres undefined)	
